Reference: article PMC12261321, “Inhibitors of the Bacterioferritin Ferredoxin Complex Dysregulate Iron Homeostasis and Kill and Biofilm-Embedded Cells” (ACS Infectious Diseases, 2025)
“Also recorded” adds a separate entry of the source.

system: P. aeruginosa PAO1; test: Pyoverdin secreted by P. aeruginosa PAO1 (fluorescence); type: cell-based; settings: planktonic cells, 24 h; KM-5–25 80 μM, KM-5–35 60 μM, EB-5–73 40 μM, SB-17–140 80 μM
Procedure: Dete rmination of pyoverdin secreted by P. aeruginosa PA O 1 . These experiments were conducted as previously reported13 with some modifications. Cells were cultured in modified M63 media (2 g / L ( N H 4)2SO4, 13.6 g/L KH2PO4 (Sigma Aldrich), 2 g/L glucose, 4 g/L cit ric acid, 5 g/ L technical grade casamino acids (B D scientific), 0.24 g/L MgSO4 (Alfa A esar), and 0.025% (w/v) HPMC, pH 7.0 adjusted with KOH) . Starter cultures in LB were diluted to OD600 = 0.0001 and cultured in a sh aker i ncubator (35 °C and 205 rpm) for 24 h, in the absen ce ( control) and in the presence of KM -5- 25 (80 μM), KM-5- 35 (60 μM), EB- 5- 73 (40 μM), and SB-17- 140 (80 μM); al l cell suspensions have 1.5% DMSO. 700 μ L of the culture wer e clarified by centrifugation (16,200 x g, 10 min, 4 °C), diluted 10-fold in PBS and then analyzed by acquiring fluorescence emission spectra (410- 600 nm) with excitation at 400 nm (10 nm slit width) and emission at λ max= 430 nm (10 nm slit width) using an Ag ilent (Cary Eclipse) fluorescen ce sp ectrophotometer. The flu orescen ce intensity of th e treated sample (FI)Tr and that of the untreated control (FI)Un was normalized to the corresponding OD600 and the ratio (FI/OD600)Tr / (F I/ OD600)Un is […]
The determination for each of the compounds was carri ed out in 5 biological replicates. […]

For `O=C1NC(=O)c2c(NCc3cccc(Br)c3O)cccc21` [EB-5-73], the “pyoverdine secretion, (FI/OD600)Tr/(FI/OD600)Un” value (“pyoverdine secretion” below) was “did not secrete more pyoverdine than the untreated control cultures; also recorded: secrete the same amount of pyoverdine as the untreated control”.
In the case of `O=C1NC(=O)c2c(NCc3cc(Cl)ccc3O)cccc21` [KM-5-25, 4-((5-Chloro-2-hydroxybenzyl)amino)isoindoline-1,3-dione], the “pyoverdine secretion” value is reported as “overproduction of pyoverdine; also recorded: pyoverdine overproduction phenotype”.
`O=C1NC(=O)c2c(NCc3cc(Br)ccc3O)cccc21` [KM-5-35, 4-((5-Bromo-2-hydroxybenzyl)amino)isoindoline-1,3-dione] was tested, and the “pyoverdine secretion” value was “overproduction of pyoverdine; also recorded: pyoverdine overproduction phenotype”.
`O=C1NC(=O)c2c(NCc3cccc4c3CCN4)cccc21` [SB-17-140] was tested, and the “pyoverdine secretion” value was “did not secrete more pyoverdine than the untreated control cultures; also recorded: secrete the same amount of pyoverdine as the untreated control”.

system: A. baumannii 5075; test: Compound intracellular accumulation in A. baumannii 5075; type: cell-based; settings: ‡ treatment with 15 µM compound

`O=C1NC(=O)c2c(NCc3cc(Cl)ccc3O)ccc(Br)c21` [SB-16-51] and `O=C1NC(=O)c2c(NCc3cc(Br)ccc3O)ccc(Cl)c21` [SB-16-124] are within error of each other in “Intracell. Accum, A. baumannii 5075” value: 2137 ± 311 nmol/1012 CFU for the first, 2626 ± 389 nmol/1012 CFU for the second.

Going from `CC(C)(C)c1ccc(O)c(CNc2cccc3c2C(=O)NC3=O)c1` [SB-16-53] to `Cc1cc(Br)cc(CNc2cccc3c2C(=O)NC3=O)c1O` [SB-16-106], the “Intracell. Accum, A. baumannii 5075” value rises from 327 ± 17 nmol/1012 CFU to 782 ± 11 nmol/1012 CFU.

In the case of `Cc1cc(Cl)cc(CNc2cccc3c2C(=O)NC3=O)c1O` [SB-16-156], the “Intracell. Accum, A. baumannii 5075” value is reported as 671 ± 89 nmol/1012 CFU.

system: A. baumannii 5075; test: as above; type: cell-based; settings: cells treated with 30 µM compound
Procedure: Determination of Compound Intracellular Accumulation. These experiments were carri ed out as reported previously,16 with modifications. Starter cultures o f P. aeruginosa PAO1 or A. baumannii 5075 were centrifuged for 10 min at 3148 x g and 4 °C, resuspended in 5 mL of fresh LB, diluted to OD 600 = 0.03 in fresh LB media (250 mL), and then cultured at 35 °C and 220 rpm for 4 h. Th e resultant cul ture was diluted to OD600 = 0.4 in 250 mL LB and centrifuged at 4 °C and 3470 x g for 10 min. The cell pellet was resuspended in 20 mL of PBS and transfer red to a 50 mL conical tube, where it was centrifuged at 4 °C and 3148 x g for 20 min. The cell pellet was resuspended in 15 mL of PBS supplemented with 0.05% (w/v) HPMC and the suspension was divided equally into two new conical tubes. One of th e tubes was treated with 150 µL of DMSO (control), while the second tube was treated with 150 µL of compound in DMSO solution to produce a compound final concentration of 30 µM or 15 µM. The resultant mixtures were incubated at 37 °C and 220 rpm for 15 min, placed on ice for 1 min, and then centrifuged at 3148 x g rpm and 4 °C for 10 min. The cell pellet was resuspended in 7.5 mL of ice -cold PBS and vortexed (10 s, five t imes). 200 µL of the cell suspension was used to plate and enumerate viable cells, and 800 µL of the suspension was lay ered onto 700 µL of chilled silicon oil contained in 1.5 mL Eppendo rf tubes and then centrifuged at 4 °C ( 900 x g) for 10 min, then again at 16,200 x g for 5 min to allow pass ag e of the cell suspension through the silicon oil layer. The aqueous and oil layers were removed, and the cell pellet was washed twice in PBS (800 μ L), each time transferring the cell suspension to a new Eppendorf tube and then centrifuging at 16,200 x g. The cell pellet was lysed in 800 µL methanol by vortexing followed by 10 min incubationat room temperatur e. The lysate suspension was pelleted, the supernatant was transferred to a new Eppendorf tube and then placed into a vacuum concentrator (Eppendorf 5301 Vacufuge) to evaporate the methanol (4 h). The dried […]
cell lysate was resuspend ed in 600 µL of DMSO and centrifuged at 16,200 x g rpm for 5 min at room temperature.
The clarified supernatant was titrated with small volumes of 250 µM compound stock, measuring the fluorescen ce after the addition of each aliquot with the aid of a Cary Eclipse Fluorescence Spectrometer (Agilent). The compound concentration was determined utilizing the standard addition method,17 and compound accumulation is reported as nmol compound/1012 CFU/mL. […]
Eclipse) fluorescen ce sp ectrophotometer. The flu orescen ce intensity of th e treated sample (FI)Tr and that of the untreated control (FI)Un was normalized to the corresponding OD600 and the ratio (FI/OD600)Tr / (F I/ OD600)Un is […]
The determination for each of the compounds was carri ed out in 5 biological replicates.
Determination of Siderophores Secreted by A. baumannii . The chromo azurol S (CAS) solution was prepared as previously reported18 with some modifications. The blue dye solution (0.6 g/L CAS ( ACROS Organics), 100 μM FeCl3·6H2O, and 0.73 g/L hexadecyltrimethylammonium bromide (HDTMA, ACROS Organics) was autoclaved and stored in the dark. The MM9-PIPES buffer solution (3 g/L KH2PO4, 5 g/L NaCl, 10 g/L NH4C l, 32.24 g/L piperazine -1,4-bis-2- ethanesulfonic acid (PIPES , Sigma Aldrich), pH 6.75) was sterilized using a 0.22 µm syringe filter (VWR). Prior to every experimen t, blue dye solution (0.5 mL) was mixed with 4.5 mL of MM9-PIPES solution. An overnight culture of A. baumannii 5075 was diluted to OD600 = 0.0001 with modified M63 media (no citric acid) supplemented with 4 μ M Fe and transferred to a 96-well plate, wh ere it was cul tured for 20

Compared with `O=C1NC(=O)c2c(NCc3ccccc3O)cccc21` [Analog 11, 4-((2-Hydroxybenzyl)amino)isoindoline-1,3-dione], `Cc1ccc(CNc2cccc3c2C(=O)NC3=O)c(O)c1` [EB-5-69] is higher in “Intracell. Accum, A. baumannii 5075” value: 55 ± 15 nmol/1012 CFU for the first, 193 ± 33 nmol/1012 CFU for the second.

First: Cc1cccc(CNc2cccc3c2C(=O)NC3=O)c1O [EB-5-70]
Second: O=C1NC(=O)c2c(NCc3cccc(Br)c3O)cccc21 [EB-5-73]
The “Intracell. Accum, A. baumannii 5075” value of the first is lower: 99 ± 15 nmol/1012 CFU for the first, 201 ± 30 nmol/1012 CFU for the second.

First: O=C1NC(=O)c2c(NCc3c(O)cccc3F)cccc21 [EB-5-71]
Second: O=C1NC(=O)c2c(NCc3c(O)cccc3Cl)cccc21 [KM-5-29]
The “Intracell. Accum, A. baumannii 5075” value of the first is lower: 495 ± 35 nmol/1012 CFU for the first, 2614 ±134 nmol/1012 CFU for the second.

Compared with `O=C1NC(=O)c2c(NCc3cccc(F)c3O)cccc21` [EB-5-80], `O=C1NC(=O)c2c(NCc3cccc(Cl)c3O)cccc21` [KM-5-30] is higher in “Intracell. Accum, A. baumannii 5075” value: 44 ± 6 nmol/1012 CFU for the first, 169 ± 62 nmol/1012 CFU for the second.

First: O=C1NC(=O)c2c(NCc3cc(F)ccc3O)cccc21 [JAG-5-7]
Second: O=C1NC(=O)c2c(NCc3cc(F)ccc3O)ccc(Br)c21 [SB-16-67]
The “Intracell. Accum, A. baumannii 5075” value of the first is lower: 157 ± 54 nmol/1012 CFU for the first, 1173 ± 53 nmol/1012 CFU for the second.

`O=C1NC(=O)c2c(NCc3cc(Br)c(O)cc3O)cccc21` [SB-16-137] was tested, and the “Intracell. Accum, A. baumannii 5075” value was 86 ± 23 nmol/1012 CFU.
